One data set concerns A2780/CP70 cells. Briefly: Carboplatin IC50 with and without BMS-833923 in platinum resistant cell line. Type of data set: cell-based. To be noted: A2780/CP70, addition of BMS-833923 at 5 μM. The method, then:
Considering the synergy described above and that the Hedgehog pathway is associated with cancer stem cell properties. In the effect of BMS-833923 plus carboplatin in two isogenic ovarian cancer cell lines specifically designed to evaluate platinum resistance mechanisms: A2780 (platinum sensitive) & A2780/CP70 (platinum resistant). Each cell line was evaluated to determine the IC50 dose of carboplatin to ensure a discernable difference in platinum treatment could be determined (FIG. 11A). The A2780/CP70 cell line required a 4-fold increase in carboplatin to reach IC50 (A2780/CP70=400 μM; A2780=100 μM). […] (FIG. 11B and FIG. 11C).

The test system of a further data set is OV90 OCSC (CD44+/CD24-). Briefly: Matrigel invasion assay of CD44+/CD24- ovarian cancer stem cells. The class given is cell-based. To be noted: 2.5 μM, 24 hours. The procedure: (§1) Fluorescence-activated cell sorting (FACS) was performed in order to sort into 2 distinct phenotypes: 1) ovarian cancer stem cell phenotype (OCSC=CD44+/CD24−) and 2) non-ovarian cancer stem cells (non-OCSC=all other phenotypes). Each ovarian cancer phenotype was evaluated for invasion properties using the Matrigel invasion assay for the SKOV3 and OV90 cell lines. Matrigel™-coated chamber (BD Pharmingen) were rehydrated for 2 hours in humidified tissue culture incubator at 37° C., 5% CO2. After rehydration, the medium was carefully removed without disturbing the layer of Matrigel Matrix on the membrane. The cell suspension was prepared in serum-free medium containing 10^5 cells/mL. The lower chambers of the 24-well plate were filled with 750 μL serum-free medium containing 10 μg/mL fibronectin as a chemotactic factor. […] The cells were then fixed, stained and counted. Numbers of invaded cells at least 10 consecutive fields were enumerated and their average was calculated. Data are expressed as the number of migrating cells per field. Three groups were evaluated: 1) non-OCSC; 2) OCSC; 3) OCSC plus BMS833923 treatment.
(§2) One aggressive property of cancer includes the ability to invade tissues locally. Therefore, the ability of Ovarian Cancer Stem Cells (OCSC) with CD44+/CD24− phenotype to invade via Matrigel invasion assay was evaluated. […]

The test system of a further data set is SKOV3 OCSC (CD44+/CD24-). The data set is described as above. The class given is cell-based. As to conditions: 2.5 μM, 24 hours. The procedure:
as §1, §2

Another data set has as its system GLI1. Briefly: Quantitative RT-PCR of Hedgehog pathway mediators in SKOV3 cells. Type of data set: cell-based. The procedure:
(§3) Total RNA was isolated using Trizol reagent from ovarian cancer cell line monolayer and spheroids-forming cells according to the manufacturer instructions (Invitrogen Corporation, Carlsbad, Calif.) and cDNA was prepared using High Capacity Reverse Transcriptase Kit (Applied Biosystem, Foster City, Calif.). Real-time PCR was performed using a Bio-Rad iQ5 Real-time Detection system (Bio-Rad). All reactions were done as three independent replicates. All assays were done using the TaqMan Gene Expression Assays from Applied Biosystems. Primers and probes for the TaqMan system were selected from the Applied Biosystems website. [Gli1 assay ID: Hs01110766 ml, Patched (PTCH) assay ID: Hs00970980 ml. The relative expression mRNA levels of GLI1, and PTCH were normalized to internal control glyceraldehyde-3-phosphate dehydrogenase (assay ID: Hs99999905 ml) levels (2^−δδCT).
(§4) Quantitative realtime PCR (RT-PCR) was performed as described above. To assess the effects of inhibition of SMO by BMS-833923, levels of GLI1 and PTCH were measured by quantitative RT-PCR. SKOV3 ovarian cancer cell line was treated with 2.5 μM BMS-833923 for 24 hr and 48 hr and compared to untreated controls.

The test system of the next data set is PTCH. The data set is described as above. The class given is cell-based. The procedure:
as §3, §4

A further data set relates to CP2780 xenografts. Put plainly: Xenograft tumor growth, carboplatin-resistant model. The class given is in vivo. To be noted: SCID mice; BMS-833923 100 mg/kg i.p. daily, Carboplatin 40 mg/kg i.p. twice a week, two weeks. The method, then:
Female SCID mice 6-8 weeks old were inoculated i.p. with 5×10^6 A2780 or A2780/CP70 cells suspended in 200 μL PBS (PH 7.4). Seven days later when the tumor reached a size of greater than 150 mm^3, the mice were randomly divided into 4 groups (8 mice per group) as follows: (1) PBS-treated control; (2) BMS-833923 alone (100 mg/kg, i.p. daily, two weeks); (3) Carboplatin alone (40 mg/kg, i.p. twice a week, two weeks); (4) Combination of BMS-833923 and Carboplatin treatment. Mice were weighed and tumor diameters were measured with calipers every 2-3 days for 20 days. The tumor volumes (mm^3) were calculated as (W^2×L)/2, where W and L are the minor and major diameters (in millimeters), respectively.
Xenograft experiments were performed as described above. Carboplatin was dosed days 7, 11, 14, 18; BMS-833923 was dosed days 8 through 20. The experiment was terminated due to excessive tumor size in vehicle and BMS-833923 treatment groups.
The CP2780 was derived from the A2780 Ovarian tumor xenograft model by selection for resistance to cisplatin. The CP2780 growth appeared to be more robust than observed for parental A2780 model (FIG. 12B). Average tumor volume doubling time for CP2780 was estimated at 2 days. Doubling time for parental A2780 tumor model was estimated at 3 days. […]

Data set [1] can be described thus: MTD for combination therapy. Type of data set: in vivo. To be noted: in vivo; BMS-833923 + carboplatin given together; previously demonstrated. The source says: Treatment with BMS-833923 appeared to have little effect on the growth of A2780 xenografts in vivo.

Regarding `CNCc1ccc(C)c(NC(=O)c2ccc(Nc3nc(-c4ccccc4)c4ccccc4n3)cc2)c1` [BMS-833923, N-{2-methyl-5-[(methylamino)methyl]phenyl}-4-[(4-phenylquinazolin-2-yl)amino]benzamide], the “reduction of platinum needed to achieve the same cell death” value in the data set on A2780/CP70 cells turned out to be 10 fold. Besides, the “invasive properties of OCSC (number of cells invaded)” value in the data set on OV90 OCSC (CD44+/CD24-) and in the data set with SKOV3 OCSC (CD44+/CD24-) was “lower than non-OCSCs” each time. Further, the “decrease in GLI1 activity (RTQ)” value in the data set with GLI1 (SKOV3, 2.5 μM, 24 hr and 48 hr, vs untreated) worked out at 10 fold. For the same compound, the “downregulation of GLI1 protein compared to untreated controls” value in the data set on GLI1 (as stated in the description) was found to be 5 fold. Also, the “PTCH activity compared to untreated controls” value in the data set on PTCH (SKOV3, 2.5 μM, 24 hr and 48 hr) is recorded as “down-regulation in activity”. In the data set with PTCH (as stated in the description), the “downregulation of PTCH protein compared to untreated controls” value amounted to 3 fold. Also, the “effect on growth of CP2780 (A2780/CP70) xenografts in vivo” value with CP2780 xenografts is given as “little effect”. The MTD in data set [1] was 100 mg/kg.
